Where two headings read alike, the source gives them in different places.
Columns and labels:
EGFR(L747-T751del,Sins) = test: Ambit kinase profiling, competition binding; set-up: species or system human; conditions: for % Competition: 10 µM
Procedure: (§1) Also included in the kinase profile are four isoforms of PKC (δ, ε, η, θ) and eight isoforms of CAMKs (CAMKIα, δ, γ; CAMKIIα, β, δ, γ; CAMK4).
(§2) The global kinase profiling experiment was performed by Ambit Biosciences.

CAMKIα = molecular target: T1, CAMKIα (Homo sapiens, UniProt Q14012); test: Ambit kinase profiling, competition binding; conditions: for competition: CAMKIα, 10 µM
T1 construct: purchased Ambit Biosciences (KINOMEscan)
Procedure: as §1, §2

YANK3 = molecular target: T2, YANK3 (Homo sapiens, UniProt Q86UX6); test: Ambit kinase profiling, competition binding
T2 construct: purchased Ambit Biosciences (KINOMEscan)
Procedure: as §1, §2

JNK2 = molecular target: T3, JNK2 (Homo sapiens, UniProt P45984); test: Ambit kinase profiling, competition binding; conditions: for % Competition: 10 µM
T3 construct: purchased Ambit Biosciences (KINOMEscan)
Procedure: as §1, §2

DDR2 = molecular target: T4, DDR2 (Homo sapiens, UniProt Q16832); test: Ambit kinase profiling, competition binding
T4 construct: purchased Ambit Biosciences (KINOMEscan)
T4 sequence (Q16832 22-855): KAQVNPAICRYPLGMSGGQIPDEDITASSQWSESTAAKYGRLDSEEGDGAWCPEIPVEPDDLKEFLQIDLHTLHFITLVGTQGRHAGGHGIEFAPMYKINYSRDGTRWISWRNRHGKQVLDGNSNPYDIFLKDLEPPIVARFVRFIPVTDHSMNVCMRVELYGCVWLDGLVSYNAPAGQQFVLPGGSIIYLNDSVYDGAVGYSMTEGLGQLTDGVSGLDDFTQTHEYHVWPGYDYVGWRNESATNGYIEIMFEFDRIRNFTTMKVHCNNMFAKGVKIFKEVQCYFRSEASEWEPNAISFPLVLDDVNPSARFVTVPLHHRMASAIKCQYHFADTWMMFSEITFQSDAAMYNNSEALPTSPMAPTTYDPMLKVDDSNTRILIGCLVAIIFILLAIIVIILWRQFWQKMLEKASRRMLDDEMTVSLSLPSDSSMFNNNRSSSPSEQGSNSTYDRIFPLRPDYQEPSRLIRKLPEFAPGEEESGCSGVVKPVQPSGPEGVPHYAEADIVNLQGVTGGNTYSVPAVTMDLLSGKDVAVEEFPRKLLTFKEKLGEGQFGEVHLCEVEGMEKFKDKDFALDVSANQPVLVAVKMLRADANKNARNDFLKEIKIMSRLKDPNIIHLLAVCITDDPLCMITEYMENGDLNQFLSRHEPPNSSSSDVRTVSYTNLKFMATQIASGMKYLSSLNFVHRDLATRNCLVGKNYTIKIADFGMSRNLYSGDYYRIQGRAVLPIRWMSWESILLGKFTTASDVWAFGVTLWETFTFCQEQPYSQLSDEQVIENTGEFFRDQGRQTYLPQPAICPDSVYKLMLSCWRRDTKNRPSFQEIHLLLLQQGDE
Procedure: as §1, §2

ROS1 = molecular target: T5, ROS1 (Homo sapiens, UniProt P08922); test: Ambit kinase profiling, competition binding
T5 construct: purchased Ambit Biosciences (KINOMEscan)
Procedure: as §1, §2

[1] = molecular target: T6, TYK2 (JH2 domain-pseudokinase) (Homo sapiens, UniProt P29597); test: Ambit kinase profiling, competition binding; conditions: for % Competition: TYK2 (JH2 domain-pseudokinase), 10 µM
T6 construct: TYK2 (JH2 domain-pseudokinase); purchased Ambit Biosciences (KINOMEscan)
Procedure: as §1, §2

[2] = molecular target: T7, recombinant GST-tagged human protein kinase D1 (PKD1) (Homo sapiens, UniProt Q15139); test: In vitro radiometric PKD1 kinase assay; format: biochemical; conditions: read-out: Inhibition of PKD1
T7 construct: purchased Enzo Life sciences (Farmingdale, NY)
T7 sequence (Q15139 1-912): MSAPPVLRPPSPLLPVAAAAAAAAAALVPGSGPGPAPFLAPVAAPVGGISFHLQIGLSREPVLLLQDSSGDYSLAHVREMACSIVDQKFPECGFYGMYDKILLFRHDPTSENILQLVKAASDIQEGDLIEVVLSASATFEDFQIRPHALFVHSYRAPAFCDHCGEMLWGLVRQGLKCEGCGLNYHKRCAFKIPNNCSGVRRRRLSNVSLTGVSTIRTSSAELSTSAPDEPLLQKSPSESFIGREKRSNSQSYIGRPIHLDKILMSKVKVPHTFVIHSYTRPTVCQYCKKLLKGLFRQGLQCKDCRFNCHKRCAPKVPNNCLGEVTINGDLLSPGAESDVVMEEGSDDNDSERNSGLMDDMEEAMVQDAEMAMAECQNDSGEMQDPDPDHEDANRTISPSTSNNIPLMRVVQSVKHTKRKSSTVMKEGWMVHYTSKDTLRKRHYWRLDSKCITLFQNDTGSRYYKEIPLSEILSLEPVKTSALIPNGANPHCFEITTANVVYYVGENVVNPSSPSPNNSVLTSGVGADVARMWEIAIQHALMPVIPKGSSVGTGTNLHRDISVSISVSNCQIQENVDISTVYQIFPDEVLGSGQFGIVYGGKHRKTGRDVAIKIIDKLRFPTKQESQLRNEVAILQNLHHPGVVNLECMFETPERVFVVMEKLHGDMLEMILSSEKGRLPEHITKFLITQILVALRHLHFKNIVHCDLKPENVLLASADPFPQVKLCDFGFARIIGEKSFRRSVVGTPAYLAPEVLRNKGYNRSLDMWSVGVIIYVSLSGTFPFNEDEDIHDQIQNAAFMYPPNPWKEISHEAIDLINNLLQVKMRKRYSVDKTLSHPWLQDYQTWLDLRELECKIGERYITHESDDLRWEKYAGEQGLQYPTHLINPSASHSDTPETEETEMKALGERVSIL
Procedure: All compounds were given distinct UPCMLD (University of Pittsburgh Center for Chemical Methodologies and Library Development) IDs and were then assigned numerical IDs for convenient data display. Evaluation of each compound was carried out in triplicate at a single concentration (1 µM). Our previously described PKD1 inhibitor, kb-NB142-70, and DMSO (solvent alone) were used as positive and negative controls, respectively. Percent residual kinase activity was calculated based on that of the negative control (DMSO).
Kinase active recombinant GST-tagged human protein kinase D1 (PKD1) was obtained from Enzo Life sciences (Farmingdale, NY). DMSO was purchased from Sigma. Recombinant PKCα, PKCδ and CAMKIIα were obtained from SignalChem (Richmond, BC, Canada). ATP was purchased from Fisher Scientific. HDAC5 substrate peptide was synthesized by Biobasic Canada Inc. (Markham, ON). Myelin basic protein 4–14 was purchased from AnaSpec Inc. (Fremont, CA). The targeted kinase inhibitor library was obtained from Hoffmann-La Roche, Inc.
1.2 µg of HDAC-5 was used as substrate in the reaction. Phosphorylation of HDAC5 was detected in a kinase reaction having 1 µCi [γ-^32P] […] The reaction was incubated at 30° for 10 minutes and 25 µL of the reaction was spotted on Whatman P81 filter paper. The filter paper was washed 3 times in 0.5% phosphoric acid, air dried and counted using Beckman LS6500 multipurpose scintillation counter. Percent PKD1 inhibition was graphed using GraphPad Prism software 5.0.

T5 sequence (P08922 28-2347): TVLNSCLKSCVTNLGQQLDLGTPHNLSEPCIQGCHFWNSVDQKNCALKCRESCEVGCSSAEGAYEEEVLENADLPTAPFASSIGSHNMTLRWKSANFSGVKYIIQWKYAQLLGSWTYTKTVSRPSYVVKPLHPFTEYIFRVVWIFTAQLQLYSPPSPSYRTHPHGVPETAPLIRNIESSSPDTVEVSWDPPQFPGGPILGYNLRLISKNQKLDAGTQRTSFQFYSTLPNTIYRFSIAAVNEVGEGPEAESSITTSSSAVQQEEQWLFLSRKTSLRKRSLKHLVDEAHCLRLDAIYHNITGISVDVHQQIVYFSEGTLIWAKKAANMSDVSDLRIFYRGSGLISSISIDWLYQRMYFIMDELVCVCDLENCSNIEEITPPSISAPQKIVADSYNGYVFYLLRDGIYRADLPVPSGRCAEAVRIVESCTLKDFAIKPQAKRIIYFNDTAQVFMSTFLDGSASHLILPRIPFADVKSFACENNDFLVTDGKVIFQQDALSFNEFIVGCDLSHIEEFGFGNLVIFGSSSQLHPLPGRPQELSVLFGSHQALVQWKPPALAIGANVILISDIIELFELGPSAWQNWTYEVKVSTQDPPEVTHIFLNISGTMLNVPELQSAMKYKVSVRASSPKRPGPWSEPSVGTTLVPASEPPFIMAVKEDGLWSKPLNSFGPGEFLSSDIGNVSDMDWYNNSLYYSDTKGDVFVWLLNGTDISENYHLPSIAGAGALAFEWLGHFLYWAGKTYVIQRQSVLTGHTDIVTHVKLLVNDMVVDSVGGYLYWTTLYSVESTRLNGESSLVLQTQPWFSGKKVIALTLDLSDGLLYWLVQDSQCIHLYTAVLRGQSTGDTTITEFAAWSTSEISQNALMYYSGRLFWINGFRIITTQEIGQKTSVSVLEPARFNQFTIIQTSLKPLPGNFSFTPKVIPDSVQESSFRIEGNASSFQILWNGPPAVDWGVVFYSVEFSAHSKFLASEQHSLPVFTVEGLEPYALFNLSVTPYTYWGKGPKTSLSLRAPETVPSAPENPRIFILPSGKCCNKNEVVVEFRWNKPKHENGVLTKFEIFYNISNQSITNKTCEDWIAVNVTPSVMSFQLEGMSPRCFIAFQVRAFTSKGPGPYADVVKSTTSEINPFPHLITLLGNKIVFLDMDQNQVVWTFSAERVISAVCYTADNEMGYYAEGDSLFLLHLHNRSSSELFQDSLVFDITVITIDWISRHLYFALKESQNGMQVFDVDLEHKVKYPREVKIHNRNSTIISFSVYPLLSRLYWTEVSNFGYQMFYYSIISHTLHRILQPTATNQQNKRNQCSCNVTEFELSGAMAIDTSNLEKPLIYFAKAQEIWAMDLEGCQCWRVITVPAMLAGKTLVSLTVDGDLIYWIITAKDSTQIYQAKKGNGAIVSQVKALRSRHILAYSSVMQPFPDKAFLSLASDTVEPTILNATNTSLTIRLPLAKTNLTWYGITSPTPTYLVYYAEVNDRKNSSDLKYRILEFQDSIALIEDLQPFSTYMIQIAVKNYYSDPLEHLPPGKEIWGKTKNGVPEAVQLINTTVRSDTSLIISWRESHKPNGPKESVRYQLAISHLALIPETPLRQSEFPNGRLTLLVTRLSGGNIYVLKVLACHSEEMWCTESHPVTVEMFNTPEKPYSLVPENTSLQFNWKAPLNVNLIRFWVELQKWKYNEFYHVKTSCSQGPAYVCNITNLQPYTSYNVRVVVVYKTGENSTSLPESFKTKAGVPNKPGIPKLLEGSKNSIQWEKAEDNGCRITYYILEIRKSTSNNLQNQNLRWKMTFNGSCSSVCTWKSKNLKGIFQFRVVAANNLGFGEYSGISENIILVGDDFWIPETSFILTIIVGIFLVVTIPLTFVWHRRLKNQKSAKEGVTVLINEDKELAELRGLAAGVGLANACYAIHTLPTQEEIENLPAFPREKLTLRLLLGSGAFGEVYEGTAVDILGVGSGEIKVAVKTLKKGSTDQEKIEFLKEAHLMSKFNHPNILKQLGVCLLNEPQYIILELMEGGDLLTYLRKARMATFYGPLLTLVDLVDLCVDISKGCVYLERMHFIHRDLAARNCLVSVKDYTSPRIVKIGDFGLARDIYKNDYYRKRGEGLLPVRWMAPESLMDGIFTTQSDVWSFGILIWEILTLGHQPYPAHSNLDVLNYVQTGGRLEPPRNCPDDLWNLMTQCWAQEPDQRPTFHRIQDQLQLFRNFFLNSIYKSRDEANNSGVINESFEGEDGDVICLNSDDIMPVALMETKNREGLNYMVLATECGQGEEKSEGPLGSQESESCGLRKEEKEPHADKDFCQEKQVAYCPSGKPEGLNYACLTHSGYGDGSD
T3 sequence (P45984 whole entry): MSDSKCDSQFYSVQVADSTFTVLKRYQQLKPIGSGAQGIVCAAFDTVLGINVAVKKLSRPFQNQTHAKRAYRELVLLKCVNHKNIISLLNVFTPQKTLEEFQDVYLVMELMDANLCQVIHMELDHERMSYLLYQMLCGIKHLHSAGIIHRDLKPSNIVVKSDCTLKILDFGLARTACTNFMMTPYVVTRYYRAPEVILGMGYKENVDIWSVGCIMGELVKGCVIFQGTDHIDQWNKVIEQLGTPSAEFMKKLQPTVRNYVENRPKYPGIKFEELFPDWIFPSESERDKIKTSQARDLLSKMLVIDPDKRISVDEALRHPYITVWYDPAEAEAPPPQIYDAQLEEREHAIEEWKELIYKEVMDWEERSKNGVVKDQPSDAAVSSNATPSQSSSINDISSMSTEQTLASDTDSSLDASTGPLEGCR
T6 sequence (P29597 556-888 limits assumed): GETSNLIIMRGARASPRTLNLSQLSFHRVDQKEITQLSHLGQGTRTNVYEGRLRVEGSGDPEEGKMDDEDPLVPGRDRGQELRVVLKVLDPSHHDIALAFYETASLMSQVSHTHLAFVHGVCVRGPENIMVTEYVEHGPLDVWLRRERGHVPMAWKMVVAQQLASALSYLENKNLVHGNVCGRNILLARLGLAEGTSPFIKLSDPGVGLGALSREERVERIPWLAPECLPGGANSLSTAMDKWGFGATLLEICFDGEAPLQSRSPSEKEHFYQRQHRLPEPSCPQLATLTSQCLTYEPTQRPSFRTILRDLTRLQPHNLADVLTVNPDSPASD
T1 sequence (Q14012 whole entry): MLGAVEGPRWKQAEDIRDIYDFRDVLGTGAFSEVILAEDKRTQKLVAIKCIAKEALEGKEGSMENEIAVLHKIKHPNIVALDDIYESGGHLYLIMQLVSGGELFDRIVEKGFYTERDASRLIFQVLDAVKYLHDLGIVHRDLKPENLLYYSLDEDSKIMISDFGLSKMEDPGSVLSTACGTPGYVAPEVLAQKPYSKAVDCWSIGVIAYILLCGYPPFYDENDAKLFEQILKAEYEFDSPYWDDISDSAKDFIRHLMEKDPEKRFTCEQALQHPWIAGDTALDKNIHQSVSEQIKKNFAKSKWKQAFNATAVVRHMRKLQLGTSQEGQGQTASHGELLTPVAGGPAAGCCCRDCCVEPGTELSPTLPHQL
T2 sequence (Q86UX6 whole entry): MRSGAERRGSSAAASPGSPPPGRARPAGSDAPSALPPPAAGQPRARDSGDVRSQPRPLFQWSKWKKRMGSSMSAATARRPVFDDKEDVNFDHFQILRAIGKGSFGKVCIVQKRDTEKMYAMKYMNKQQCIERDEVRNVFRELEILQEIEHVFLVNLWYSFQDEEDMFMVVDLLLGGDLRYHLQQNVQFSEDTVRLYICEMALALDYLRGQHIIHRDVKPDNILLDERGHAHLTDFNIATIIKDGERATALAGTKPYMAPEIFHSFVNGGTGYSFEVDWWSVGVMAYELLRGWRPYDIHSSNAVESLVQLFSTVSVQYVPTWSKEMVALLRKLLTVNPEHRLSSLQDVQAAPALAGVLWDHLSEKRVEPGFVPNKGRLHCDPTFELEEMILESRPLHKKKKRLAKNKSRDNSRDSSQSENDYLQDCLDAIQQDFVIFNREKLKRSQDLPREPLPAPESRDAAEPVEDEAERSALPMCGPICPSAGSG

Row | inhibition at 10 µM (YANK3; YANK3, 10 µM, read-out: % Competition) [%] | inhibition at 10 µM (DDR2; DDR2, 10 µM, read-out: % Competition) [%] | inhibition at 10 µM (ROS1; ROS1, 10 µM, read-out: % Competition) [%] | inhibition at 1 µM ([2]; 1 µM, triplicate determinations) [%] | Percent Competition (EGFR(L747-T751del,Sins); compound concentration 10 uM) [%] | inhibition at 10 µM (CAMKIα; CAMK1, compound concentration 10 uM, read-out: Percent Competition) [%] | inhibition at 10 µM (YANK3; YANK3, compound concentration 10 uM, read-out: Percent Competition) [%] | Percent Competition (JNK2; compound concentration 10 uM) [%] | inhibition at 10 µM (DDR2; DDR2, compound concentration 10 uM, read-out: Percent Competition) [%] | inhibition at 10 µM (ROS1; ROS1, compound concentration 10 uM, read-out: Percent Competition) [%] | Percent Competition ([1]; TYK2(JH2domain-pseudokinase), compound concentration 10 uM) [%] | Compound | % Competition (EGFR(L747-T751del,Sins)) [%] | competition (CAMKIα) [%] | % Competition (JNK2) [%] | % Competition [1] [%] | inhibition at 10 µM (YANK3; read-out: % Competition) [%] | inhibition at 10 µM (DDR2; read-out: % Competition) [%] | inhibition at 10 µM (ROS1; read-out: % Competition) [%] | inhibition at 1 µM [2] [%]
1 | 67 | 100 | 80 | 62 |  |  |  |  |  |  |  | Fc1ccc(-c2c(-c3ccncc3)[nH]c3nccnc23)cc1 [Compound 122] | 97 | < 50 | 100 | 78 |  |  |  | 
2 |  |  |  |  |  |  |  |  |  |  |  | CC(O)CNc1cc(-c2[nH]c3cccnc3c2-c2ccc(F)cc2)ccn1 (centres unmarked) [Compound 140] | 90 | < 50 | 100 | 92 | < 50 | 67 | < 50 | 80
3 |  |  |  |  | 97 | < 50 | 67 | 100 | 100 | 80 | 78 | Fc1ccc(-c2c(-c3ccncc3)[nH]c3nccnc23)cc1 [RO1155697-000-005] |  |  |  |  |  |  |  | 

Source: article PMC3445516 (PLoS ONE, 2012)
